“And” between values parts separate entries of the source, which are not always exact repeats. Identical values can stand only once.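 Assay format: 96-well plates, 48-hour exposure. Abbreviation: GI50, concentration required for 50% inhibition of growth. At the TGI there is no net growth.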

One assay has as its system DLD-1 colon. In words: inhibition of tumour cell growth, NCI panel, 48 h.
`COc1ccc(C=O)cc1O[Si](C)(C)C(C)(C)C` came in with a TGI greater than 100 µM.
`CC1(O)C(C)(O)C2(C)O[Te]3(OC12C)OC1(C)C(C)(O)C(C)(O)C1(C)O3` (stereo not given) gave a TGI greater than 100 µM.
On to `COc1cc(NCC(C#N)C#N)ccc1N=Nc1ccc(Cl)cc1`, for which the TGI came out at 85.4 µM.
As for `Cc1ccc(S(=O)(=O)OC2CC=CC2)cc1`, the TGI was greater than 100 µM.
The compound `C=CC[P@]1(=O)O[C@H](c2ccccc2)[C@H](C)N1C` gave a TGI greater than 100 µM.
For `OCC12C=CC(C1)c1ccccc12` (stereo not given), the TGI is greater than 100 µM.
Still for that read-out and setting: the result for `CCOC1C(Br)Cn2c(=O)c3cc4ccccc4cc3c(=O)n2C1C` (stereo not given) reads greater than 100 µM.
Compound `COc1ccc(NC(=O)CC/C(CC(=O)c2ccco2)=N/NC(=O)C(N)=O)cc1` came in with a TGI greater than 100 µM.
For the compound `NC(CCCC(N)P(=O)(O)O)P(=O)(O)O` (stereo not given), the TGI was greater than 100 µM.
Regarding `CC(=O)C1C(c2ccccc2)C2(C)OC(=O)C(C#N)C12C` (stereo not given), the TGI was greater than 100 µM.
`C[C@]12CC=CC(=O)[C@@]1(C)CCC(=O)C2` yielded a TGI greater than 100 µM.
On the same count and under the same terms, the result for `CC(=O)Oc1cc2c(cc1OC(C)=O)C1(C)CCC2(C)c2cc(OC(C)=O)c(OC(C)=O)cc21` reads greater than 100 µM; that for `CCCC1(CC(=O)O)OCCc2c1[nH]c1ccccc21` (stereo not given), greater than 100 µM; that for `O=C(NC(=O)c1c(F)cccc1F)Nc1cccc(Oc2ncc(Cl)cn2)c1`, greater than 100 µM.

For a further assay, the system named is MOLT-4 leukemia. Put plainly: inhibition of tumour cell growth, NCI panel, 48 h.
The compound `CCC1=CCN(c2cc(C)ccn2)OC1c1ccc(OC)cc1` (stereo not given) yielded a TGI of 82.4 µM.
On the same count and under the same terms, the result for `CC(=O)Oc1c(C)c(-c2ccccc2)c(C)c(-c2ccccc2)c1C(=S)c1ccccc1` reads greater than 100 µM; that for `COc1ccc(C=O)cc1O[Si](C)(C)C(C)(C)C`, greater than 100 µM; that for `CC1(O)C(C)(O)C2(C)O[Te]3(OC12C)OC1(C)C(C)(O)C(C)(O)C1(C)O3` (stereo not given), 34.5 µM.
Turning to `COc1cc(NCC(C#N)C#N)ccc1N=Nc1ccc(Cl)cc1`, the TGI was 39.8 µM.
In turn, `CC(=O)c1ccc(NC(=O)/C(CC(=O)c2sc(-c3cccnc3)nc2C)=N/NC(N)=O)cc1` returned a TGI of 46 µM.
Still for that read-out and setting: the result for `Cc1ccc(S(=O)(=O)OC2CC=CC2)cc1` reads greater than 100 µM; that for `C=CC[P@]1(=O)O[C@H](c2ccccc2)[C@H](C)N1C`, greater than 100 µM.
Compound `NCCCNCCS` registered a TGI greater than 100 µM.
Compound `OCC12C=CC(C1)c1ccccc12` (stereo not given) returned a TGI greater than 100 µM.
Take `CCOC1C(Br)Cn2c(=O)c3cc4ccccc4cc3c(=O)n2C1C` (stereo not given): the TGI came to 94 µM.
Still for that read-out and setting: the result for `COc1ccc(NC(=O)CC/C(CC(=O)c2ccco2)=N/NC(=O)C(N)=O)cc1` reads greater than 100 µM.
For the compound `O=C1C=CC(=O)C2C1C1(Cl)C(Cl)=C(Cl)C2(Cl)C1(Cl)Cl` (stereo not given), the GI50 is 2.54 µM and the TGI is 14.4 µM.
As for `C=CC(=O)N1CCC(Oc2cc3c(Nc4ccc(Cl)c(Cl)c4F)ncnc3cc2OC)CC1`, the GI50 is 3.38 µM and 2.13 µM; the TGI is 17.9 µM and > 8.44 µM.
In the case of `NC(CCCC(N)P(=O)(O)O)P(=O)(O)O` (stereo not given), the TGI is greater than 100 µM.
In the case of `O=C(O)CCCc1ccc2ccc3ccccc3c2c1`, the TGI is greater than 100 µM.
`CC(=O)OC1OC([C@H]2c3cccc(O)c3C(=O)c3c(O)cc(C)cc32)C(O)C(O)C1O` (stereo not given in full): the GI50 is 1.03 µM.
As for `Cc1cc(Cl)ccc1OCC(=O)Nc1nc2c(Cl)cccc2s1`, the GI50 is 6.94 µM and the TGI worked out at 60.3 µM.
As for `CNC(=O)OCc1c(COC(=O)NC)c(-c2ccc(-c3ccccc3)cc2)n(C)c1C`, the TGI is 8.95 µM.
`COc1cccc2c1C(=N)c1c(O)c3c(c(O)c1C2=O)C[C@@](O)(C(C)=O)C[C@@H]3O[C@H]1C[C@H](N)[C@H](O)[C@H](C)O1`: the GI50 is 0.0428 µM and the TGI came to 2.89 µM.
As to `Cc1cn(-c2cc(NC(=O)c3cccc(C#Cc4cccc5[nH]nc(N)c45)c3)cc(C(F)(F)F)c2)cn1`, the GI50 is 3.84 µM and the TGI was greater than 100 µM.
As for `N/N=C\c1c2ccccc2c(=O)n2c1oc1ccccc12`, the GI50 was 17.4 µM and the TGI was 64.9 µM.
Turning to `CC(=O)C1C(c2ccccc2)C2(C)OC(=O)C(C#N)C12C` (stereo not given), the TGI is greater than 100 µM.
Consider `C[C@]12CC=CC(=O)[C@@]1(C)CCC(=O)C2`, for which the TGI is greater than 100 µM.
For the compound `CC(=O)Oc1cc2c(cc1OC(C)=O)C1(C)CCC2(C)c2cc(OC(C)=O)c(OC(C)=O)cc21`, the TGI came to 96.1 µM.
With `CCCC1(CC(=O)O)OCCc2c1[nH]c1ccccc21` (stereo not given), the TGI was greater than 100 µM.
Compound `CN(C)Cc1cc(C(F)(F)F)ccc1C(O)(c1ccccc1)c1ccccc1` came in with a TGI of 38.8 µM.
The compound `O=C(NC(=O)c1c(F)cccc1F)Nc1cccc(Oc2ncc(Cl)cn2)c1` displayed a TGI greater than 100 µM.
Take `CSC(SC)(C(=O)O)c1cc(-c2c(Cl)cccc2Cl)no1`: the TGI is greater than 100 µM.

The next assay deals with DMS 273 small cell lung. In words: inhibition of tumour cell growth, NCI panel, 48 h.
As for `COc1ccc(C=O)cc1O[Si](C)(C)C(C)(C)C`, the TGI is greater than 100 µM.
On the same count and under the same terms, the same measure for `CC1(O)C(C)(O)C2(C)O[Te]3(OC12C)OC1(C)C(C)(O)C(C)(O)C1(C)O3` (stereo not given): 67.3 µM.
In turn, `COc1cc(NCC(C#N)C#N)ccc1N=Nc1ccc(Cl)cc1` returned a TGI of 41.4 µM.
For the compound `Cc1ccc(S(=O)(=O)OC2CC=CC2)cc1`, the TGI was greater than 100 µM.
Still for that read-out and setting: the result for `C=CC[P@]1(=O)O[C@H](c2ccccc2)[C@H](C)N1C` reads greater than 100 µM; that for `NCCCNCCS`, greater than 100 µM.
On the same count and under the same terms, the same measure for `OCC12C=CC(C1)c1ccccc12` (stereo not given): greater than 100 µM.
Take `CCOC1C(Br)Cn2c(=O)c3cc4ccccc4cc3c(=O)n2C1C` (stereo not given): the TGI was greater than 100 µM.
`COc1ccc(NC(=O)CC/C(CC(=O)c2ccco2)=N/NC(=O)C(N)=O)cc1` showed a TGI greater than 100 µM.
The compound `NC(CCCC(N)P(=O)(O)O)P(=O)(O)O` (stereo not given) had a TGI greater than 100 µM.
`CC(=O)C1C(c2ccccc2)C2(C)OC(=O)C(C#N)C12C` (stereo not given) displayed a TGI greater than 100 µM.
`C[C@]12CC=CC(=O)[C@@]1(C)CCC(=O)C2`: the TGI was greater than 100 µM.
Compound `CC(=O)Oc1cc2c(cc1OC(C)=O)C1(C)CCC2(C)c2cc(OC(C)=O)c(OC(C)=O)cc21` showed a TGI greater than 100 µM.
On the same count and under the same terms, the result for `CCCC1(CC(=O)O)OCCc2c1[nH]c1ccccc21` (stereo not given) reads greater than 100 µM.
As for `O=C(NC(=O)c1c(F)cccc1F)Nc1cccc(Oc2ncc(Cl)cn2)c1`, the TGI was greater than 100 µM.

For a further assay, the system named is ACHN renal. In words: inhibition of tumour cell growth, NCI panel, 48 h.
In the case of `CCC1=CCN(c2cc(C)ccn2)OC1c1ccc(OC)cc1` (stereo not given), the TGI is greater than 100 µM.

The values are drawn from PubChem BioAssay (NCI).
